According to US11969459B2, “Therapeutic agent for cardiomyopathy, old myocardial infarction and chronic heart failure” (StemRIM Inc., priority 2017, dated 2024):

How the values were obtained:
J2N-k hamsters [1] = assay: Efficacy evaluation in dilated cardiomyopathy model, long-term observations (Example 2); type: in vivo, hamster; details: vs PBS group
Method: As in Example 1, twenty J2N-k hamsters were prepared and divided into the HMGB1 peptide (1-44)-treated group (n=11) and the PBS-treated group (control, n=9), and treatment was begun at 20 weeks of age. Administration of the test substance was carried out by injecting a solution of the HMGB1 peptide (1-44), which has been adjusted to a concentration of 1 mg/ml with PBS as the vehicle, into the external jugular vein at a dose of 3 ml/kg (3 mg/kg as the peptide dosage) once daily for four consecutive days. In the control group, PBS was injected into the external jugular vein at a dose of 3 ml/kg once a day for four consecutive days. Evaluation of the cardiac function and survival rate was continued thereafter while rearing the hamsters under normal conditions.
Echocardiography was performed prior to dosing, at 4 weeks after dosing, and every 2 weeks thereafter to measure LVEF.
After the last dose, the animals were kept under normal conditions and the survival rate was evaluated.

J2N-k hamsters [2] = assay: Efficacy evaluation in dilated cardiomyopathy model (Example 1); type: in vivo, hamster
Source text: J2N-k hamsters (18-week-old, male, 20 animals in total), which are model animals of dilated cardiomyopathy, were obtained from Japan SLC, acclimated for 2 weeks, and then used for experiments. J2N-k hamsters spontaneously develop dilated cardiomyopathy due to deletion mutations in the […] gene (specifically, cardiomyocyte shedding and fibrosis begin around 5 weeks of age, cardiomegaly and cardiac dysfunction appear at approximately 20 weeks of age, and eventually they die of congestive heart failure at approximately 1 year. J Biochem. 2003 August; 134(2):269-76). Also, a peptide consisting of amino acid residues 1-44 (SEQ ID NO: 1) of the human HMGB1 protein was chemically synthesized by a solid-phase method. Hereinafter, the peptide is referred to as the HMGB1 peptide (1-44), and is abbreviated as “1-44” in the drawing corresponding to the Examples.
J2N-k hamsters were divided into the HMGB1 peptide (1-44)-treated (n=10) and PBS-treated (control, n=10) groups, and treatment was begun at 20 weeks of age (body weight about 120 g). Administration of the test substance was carried out by injecting a solution of the HMGB1 peptide (1-44), which has been adjusted to a concentration of 1 mg/ml with PBS as the vehicle, into the external jugular vein at a dose of 3 ml/kg (3 mg/kg as the peptide dosage) once a day for four consecutive days. In the control group, PBS was injected into the external jugular vein at a dose of 3 ml/kg once a day for four consecutive days. At 6 weeks after administration, a thoracotomy was performed under deep anesthesia, and the heart was removed. The mid portion of the heart was divided for cryopreservation and for paraffin fixation, and a histopathological examination was performed. Molecular biological studies were also performed using apical myocardium to evaluate effects of administration of the HMGB1 peptide (1-44).
Echocardiography was performed prior to dosing, and at 4 and 6 weeks after dosing; and left ventricular end-diastolic diameter (LVDd), left ventricular end-systolic diameter (LVDs), and left ventricular ejection fraction (LVEF) were measured and calculated to perform a cardiac function assessment. […]
Periodic Acid Schiff (PAS) staining of the myocardial tissue sections was performed to measure the short diameter of cardiomyocytes retaining a nuclear architecture, and the average of the measurements was obtained. This measurement was performed in five different fields and the mean value was calculated.
Immunostaining of the myocardial tissue sections was performed using antibodies against PDGFRα and CD29, which are surface markers of mesenchymal stem cells, to assess whether accumulation of mesenchymal stem cells was observed. Staining of the nuclei was performed using DAPI. […]
The structure of cardiomyocytes was observed by electron microscopy. Specifically, the full-thickness myocardium of the mid-portion was sampled, and subjected to pre-fixation with ½ Karnofsky, post-fixation with 2% osmium tetroxide, block-staining with 0.5% uranium acetate aqueous solution and dehydration with ethanol, and then embedded and polymerized by infiltrating epoxy resin (Queto1812). Ultrathin sections (70-110 nm) were made, and electron staining with uranium acetate and a lead stain solution was performed, and then observed by electron microscopy (H-7500, Hitachi High Technologies).

[3] = tested on: old myocardial infarction model rats; assay: Efficacy evaluation in old myocardial infarction model rats (Example 3); type: in vivo, SD rats
Method: SD rats (7-week-old, male, body weight of approximately 250 g) were anesthetized with the inhalation anesthetic sevofrane (or isoflurane) and intubated endotracheally after adequate suppression was achieved, and deep anesthesia was maintained with the inhalation anesthetic. A thoracotomy was performed in the supine position at the left fourth intercostal space, and the proximal portion of the left anterior descending coronary artery was ligated with 6-0 prolene sutures to create a broad-area myocardial infarction model. The cardiac function was evaluated by echocardiography 2 weeks after the infarction was made, and cases in which extensive infarction was obtained (LVEF<50%) were used as old myocardial infarction model rats (17 animals in total). Similar to the above examples, the HMGB1 peptide (1-44) consisting of SEQ ID NO: 1 was used.
The old myocardial infarction model rats were divided into the HMGB1 peptide (1-44)-treated group (n=9) and the PBS-treated group (control, n=8), and treatment was begun 2 weeks after the infarction was made. Administration of the test substance was carried out by injecting a solution of the HMGB1 peptide (1-44), which has been adjusted to a concentration of 1 mg/ml with PBS as vehicle, into the femoral veins at a dose of 3 ml/kg (3 mg/kg as the peptide dosage) once daily for four consecutive days. In the control group, PBS was injected at a dose of 3 ml/kg once a day via the femoral vein for four consecutive days. At 4 weeks after dosing, the heart was removed by re-thoracotomy under deep anesthesia. […] Both groups were comparatively studied using cardiac physiological, histopathological, and molecular biological techniques to evaluate the effects of administering the HMGB1 peptide (1-44). The condition after 2 weeks (14 days) or more have passed following the onset of myocardial infarction in model rats is equivalent to the condition after 30 days or more have passed following the onset of myocardial infarction in humans.
Echocardiography was performed at 1, 2, and 4 weeks after dosing, and the left ventricular end-diastolic diameter (LVDd), left ventricular end-systolic diameter (LVDs), and left ventricular ejection fraction (LVEF) were measured and calculated to perform a cardiac function assessment.
Myocardial tissue sections were stained with Sirius red, and the proportion of stain-positive area in the total area of the left ventricular myocardium was calculated as the percentage of fibrosis (%).
Von-Willebrand factors were stained at the infarct border to determine the number of blood vessels (number of vascular endothelial cells). This measurement was performed in 10 different fields and the mean value was calculated.
Periodic Acid Schiff (PAS) staining was performed at the infarct border, and the short diameter of cardiomyocytes retaining a nuclear architecture at the infarct border was measured, and the average of the measurements was obtained. This measurement was performed in 10 different fields and the mean value was calculated.
Staining of the nuclei was performed using DAPI.

[4] = tested on: Dahl salt-sensitive rats (DIS/Eis rats); assay: Efficacy evaluation in hypertensive cardiomyopathy model (Example 4); type: in vivo, rat; details: High-1-44 vs High-PBS group
Source text: The Dahl salt-sensitive rats (hereafter also referred to as DIS/Eis rats) were used in the experiments. DIS/Eis rats are hypertensive when fed with a high-salt diet and are a model that develop heart failure at a high incidence (e.g., when fed with a diet supplemented with 8% NaCl from 6 weeks of age, blood pressure reaches 250 mm Hg at 9 weeks of age, death begin to appear from 12 weeks of age, and death is highly probable by 16 weeks of age).
Ten DIS/Eis rats (6-weeks-old, male, body weight about 200 g, Japan SLC) were prepared and divided into two groups, a high-salinity diet group (n=7) and a low-salinity diet group (n=3), and feeding was continued until 15 weeks of age in which the former was fed with a diet supplemented with 8% NaCl and the latter was fed with a diet supplemented with 0.3% NaCl. Aside from the meals, nothing interfered with free movement and they were kept clean and rested without restriction on drinking water, feeding, and such in their cages.
At 11 weeks of age, the high-salinity diet group (n=7) was divided into the HMGB1 peptide (1-44)-treated group (n=3) and the control group (n=4), and treatment was initiated. Administration of the test substance was carried out by injecting a solution of the HMGB1 peptide (1-44), which has been adjusted to a concentration of 1 mg/ml with PBS as the vehicle, into the tail vein at a dose of 3 ml/kg (3 mg/kg as the peptide dosage) once daily for four consecutive days. The control group was injected with PBS at a dose of 3 ml/kg once a day via the tail vein for four consecutive days. Similar to the control group, the low-salinity diet group (n=3) also received PBS via the tail vein for four consecutive days. At 4 weeks after dosing (at 15 weeks, of age), hearts were removed from the rats by thoracotomy under general anesthesia, and their weight was measured, and then histological sections of the left ventricular myocardial cross sections were prepared at the papillary muscle level and subjected to histological analysis. In the following description, the HMGB1 peptide (1-44) administration group fed with a high-salinity diet is abbreviated as the “High-1-44 group”; the control group fed with a high-salinity diet is abbreviated as the “High-PBS group” and the low-salinity diet group is abbreviated as the “Low-PBS group”.
At 15 weeks of age, hearts were removed from rats in each group and weighed. […]
Myocardial tissue sections were stained with Sirius red, and the proportion of stain-positive area in the area of the whole heart or the left ventricle was calculated as the percentage of fibrosis (%).

[5] = 4 and 6 weeks after dosing, 3 mg/kg i.v. x4 days, vs PBS group
[6] = apical myocardium, vs PBS group
[7] = 4 weeks after dosing, vs PBS group
[8] = immunostaining of myocardial tissue
[9] = infarct border, vs PBS group, P=0.05

HMGB1 peptide (1-44): peptide consisting of amino acid residues 1-44 (SEQ ID NO: 1) of the human HMGB1 protein, chemically synthesized by a solid-phase method (MGKGDPKKPRGKMSSYAFFVQTCREEHKKKHPDASVNFSEFSKK)
survival rate (viability) (J2N-k hamsters [1]; long-term observations): tendency toward higher viability | LVEF, long-term (J2N-k hamsters [1]; until 6 weeks after administration, 3 mg/kg i.v. x4 days): remained significantly higher | left ventricular end-diastolic diameter (LVDd) (J2N-k hamsters [2]; [5]): no significant differences | left ventricular end-systolic diameter (LVDs) (J2N-k hamsters [2]; [5]): no significant differences | TSG-6 expression level (RT-PCR) (J2N-k hamsters [2]; [6]): significantly higher | VEGF expression level (RT-PCR) (J2N-k hamsters [2]; [6]): significantly higher | short diameter of cardiomyocytes (PAS staining) (J2N-k hamsters [2]; both subendocardial layer and mid layer, 6 weeks after administration, vs PBS group): significantly smaller | left ventricular ejection fraction (LVEF) (J2N-k hamsters [2]; echocardiography 4 and 6 weeks after dosing, 3 mg/kg external jugular vein once a day for four days, compared with PBS group): significantly higher | recruitment of cells positive for both PDGFRα and CD29 to the myocardial tissue (J2N-k hamsters [2]; immunostaining of myocardial tissue sections): recruited | number of PDGFRα-positive and CD29-positive cells in the myocardial tissue (J2N-k hamsters [2]; immunostaining, vs PBS group): significantly more | mitochondrial cristae structure of cardiomyocytes (electron microscopy) (J2N-k hamsters [2]; loss of cristae structure in PBS group): cristae structure was maintained | number of blood vessels (anti-CD31 immunostaining), mid layer (J2N-k hamsters [2]; mid layer, 6 weeks after administration, vs PBS group): significantly higher | percentage of Sirius red stain-positive area (myocardial fibrosis) (J2N-k hamsters [2]; myocardial tissue sections 6 weeks after administration, vs PBS group): significantly smaller | number of blood vessels (anti-CD31 immunostaining), subendocardial layer (J2N-k hamsters [2]; subendocardial layer, 6 weeks after administration, vs PBS group): tended to be higher | left ventricular ejection fraction (LVEF) ([3]; 4 weeks after dosing, 3 mg/kg femoral vein once daily for four days, begun 2 weeks after infarction, vs PBS group): significantly higher | left ventricular end-diastolic diameter (LVDd) [3, 7]: smaller values | left ventricular end-systolic diameter (LVDs) [3, 7]: smaller values | recruitment of cells positive for both PDGFRα and CD90 near the infarct border [3, 8]: recruited | recruitment of cells positive for both PDGFRα and CD105 near the infarct border [3, 8]: recruited | PDGFRα-positive and CD90-positive cells in the vicinity of the infarct border ([3]; immunostaining, vs PBS group): more | number of vessels at the infarct border (von-Willebrand factor staining) [3, 9]: significantly more vessels | short diameter of cardiomyocytes at the infarct border (PAS staining) [3, 9]: significantly smaller | percentage of Sirius red stain-positive area (myocardial fibrosis) ([3]; left ventricular myocardium, 4 weeks after dosing, vs PBS group): significantly smaller | average improvement in LVEF with respect to before the dosing ([3]; up to 4 weeks after dosing): about 7% | end-diastolic left ventricular anterior wall thickness (LVAWd) ([4]; 15 weeks of age): smaller | heart weight ([4]; 15 weeks of age, high-salinity diet, 3 mg/kg tail vein once daily for four days from 11 weeks of age): smaller heart weights | percentage of fibrosis in the left ventricle ([4]; left ventricle): smaller | percentage of Sirius red-stained positive area (percentage of fibrosis) in the whole heart ([4]; whole heart): smaller
